molecular target: ACC1 (Homo sapiens (Human), UniProt Q13085); assay: In vitro ACC inhibition assay (ADP-Glo), ACC1; type: biochemical; conditions: not given
Procedure: (§1) Compounds of the present invention were evaluated in an in vitro ACC inhibition assay as described by Harwood, et al, 2003, the entirety of which is incorporated herein by reference.
(§2) In Vitro Acetyl-CoA Carboxylase (ACC) Inhibition Assay
(§3) An exemplary procedure for the in vitro ACC inhibition assay, which can be used to determine the inhibitory action of compounds of the invention toward either ACC1 or ACC2, follows. The ADP-Glo™ Kinase Assay kit from Promega was used. The ADP-Glo™ Kinase Assay is a luminescent ADP detection assay to measure enzymatic activity by quantifying the amount of ADP produced during an enzyme reaction. The assay is performed in two steps; first, after the enzyme reaction, an equal volume of ADP-Glo™ Reagent is added to terminate the reaction and deplete the remaining ATP. Second, the Kinase Detection Reagent is added to simultaneously convert ADP to ATP and allow the newly synthesized ATP to be measured using a luciferase/luciferin reaction. Luminescence can be correlated to ADP concentrations by using an ATP-to-ADP conversion curve. The detailed procedure is as follows. 50 μL of the compound being tested (600 uM in DMSO) was added to a 384-well dilution plate. The compound was diluted 1:3 in succession in DMSO for each row for 11 wells. 0.5 μL ACC2 working solution was added to 384-well white Optiplate assay plate. 0.5 μL diluted compound solution in each column from step 2 to assay plate, each row containing 2 replicates. […] The plates were incubated at room temperature for 15 minutes. 5 μL substrate working solution was added to each well to initiate reaction. Final ACC2 reaction concentrations consist of: 5 nM ACC2, 20 μM ATP, 20 μM acetyl-CoA, 12 mM NaHCO3, 0.01% Brij35, 2 mM DTT, 5% DMSO, test compound concentrations: 30 μM, 10 μM, 3.33 μM, 1.11 μM, 0.37 μM, 0.123 μM, 0.0411 μM, 0.0137 μM, 0.00457 μM, 0.00152 μM, and 0.00051 μM. Plates were incubated at room temperature for 60 minutes. 10 μL ADP glo reagent was added. Plates were incubated at room temperature for 40 minutes. 20 μL kinase detection reagent was added. Plates were incubated at room temperature for 40 minutes, then read on a Perkin Elmer EnVision 2104 plate reader for luminescence as Relative Light Units (RLU).
(§4) Data for each concentration, as well as the positive and negative controls were averaged, and the standard deviation calculated. Percent inhibition was calculated by the formula: 100×(average negative control-compound)/(average negative control-average positive control). The IC50 for each compound was calculated by fitting the data with a non-linear regress ion equation: Y=Bottom+(Top−Bottom)/(1+10((Log IC50−X* HillSlope)), where X is the log of compound concentration and Y is percent inhibition.

COc1ccccc1C(Cn1c(=O)n(C2(C(N)=O)CC2)c(=O)c2c(C)c(-c3ncco3)sc21)OC1CCOCC1 (stereo not drawn) [Example 46] and COc1ccccc1C(Cn1c(=O)n(C2(C(N)=O)CCC2)c(=O)c2c(C)c(-c3ncco3)sc21)OC1CCOCC1 (stereo not drawn) [Example 54] fall in the same range of IC50: 0.001 to 0.01 µM for the first, 0.001 to 0.01 µM for the second.

CNC(=O)C1(n2c(=O)c3c(C)c(-c4ncco4)sc3n(CC(OC3CCOCC3)c3ccccc3OC)c2=O)CC1 (stereo not drawn) [Example 47] and CNC(=O)C1(n2c(=O)c3c(C)c(-c4ncco4)sc3n(CC(OC3CCOCC3)c3ccccc3OC)c2=O)CCC1 (stereo not drawn) [Example 53] fall in the same range of IC50: 0.001 to 0.01 µM for the first, 0.001 to 0.01 µM for the second.

COc1ccccc1C(Cn1c(=O)n(C2(C(N)=O)CCC2)c(=O)c2c(C)c(Br)sc21)OC1CCOCC1 (stereo not drawn) [Example 51] and CNC(=O)C1(n2c(=O)c3c(C)c(Br)sc3n(CC(OC3CCOCC3)c3ccccc3OC)c2=O)CCC1 (stereo not drawn) [Example 52] fall in the same range of IC50: 0.01 to 0.05 µM for the first, 0.01 to 0.05 µM for the second.

molecular target: ACC2 (Homo sapiens (Human), UniProt O00763); assay: In vitro ACC inhibition assay (ADP-Glo), ACC2; type: biochemical; conditions: 5 nM ACC2, 20 μM ATP, 20 μM acetyl-CoA; read-out: IC50 (μM) ACC2
Procedure: as §1, §2, §3, §4

Chain of ACC2 (O00763 whole entry, species assumed): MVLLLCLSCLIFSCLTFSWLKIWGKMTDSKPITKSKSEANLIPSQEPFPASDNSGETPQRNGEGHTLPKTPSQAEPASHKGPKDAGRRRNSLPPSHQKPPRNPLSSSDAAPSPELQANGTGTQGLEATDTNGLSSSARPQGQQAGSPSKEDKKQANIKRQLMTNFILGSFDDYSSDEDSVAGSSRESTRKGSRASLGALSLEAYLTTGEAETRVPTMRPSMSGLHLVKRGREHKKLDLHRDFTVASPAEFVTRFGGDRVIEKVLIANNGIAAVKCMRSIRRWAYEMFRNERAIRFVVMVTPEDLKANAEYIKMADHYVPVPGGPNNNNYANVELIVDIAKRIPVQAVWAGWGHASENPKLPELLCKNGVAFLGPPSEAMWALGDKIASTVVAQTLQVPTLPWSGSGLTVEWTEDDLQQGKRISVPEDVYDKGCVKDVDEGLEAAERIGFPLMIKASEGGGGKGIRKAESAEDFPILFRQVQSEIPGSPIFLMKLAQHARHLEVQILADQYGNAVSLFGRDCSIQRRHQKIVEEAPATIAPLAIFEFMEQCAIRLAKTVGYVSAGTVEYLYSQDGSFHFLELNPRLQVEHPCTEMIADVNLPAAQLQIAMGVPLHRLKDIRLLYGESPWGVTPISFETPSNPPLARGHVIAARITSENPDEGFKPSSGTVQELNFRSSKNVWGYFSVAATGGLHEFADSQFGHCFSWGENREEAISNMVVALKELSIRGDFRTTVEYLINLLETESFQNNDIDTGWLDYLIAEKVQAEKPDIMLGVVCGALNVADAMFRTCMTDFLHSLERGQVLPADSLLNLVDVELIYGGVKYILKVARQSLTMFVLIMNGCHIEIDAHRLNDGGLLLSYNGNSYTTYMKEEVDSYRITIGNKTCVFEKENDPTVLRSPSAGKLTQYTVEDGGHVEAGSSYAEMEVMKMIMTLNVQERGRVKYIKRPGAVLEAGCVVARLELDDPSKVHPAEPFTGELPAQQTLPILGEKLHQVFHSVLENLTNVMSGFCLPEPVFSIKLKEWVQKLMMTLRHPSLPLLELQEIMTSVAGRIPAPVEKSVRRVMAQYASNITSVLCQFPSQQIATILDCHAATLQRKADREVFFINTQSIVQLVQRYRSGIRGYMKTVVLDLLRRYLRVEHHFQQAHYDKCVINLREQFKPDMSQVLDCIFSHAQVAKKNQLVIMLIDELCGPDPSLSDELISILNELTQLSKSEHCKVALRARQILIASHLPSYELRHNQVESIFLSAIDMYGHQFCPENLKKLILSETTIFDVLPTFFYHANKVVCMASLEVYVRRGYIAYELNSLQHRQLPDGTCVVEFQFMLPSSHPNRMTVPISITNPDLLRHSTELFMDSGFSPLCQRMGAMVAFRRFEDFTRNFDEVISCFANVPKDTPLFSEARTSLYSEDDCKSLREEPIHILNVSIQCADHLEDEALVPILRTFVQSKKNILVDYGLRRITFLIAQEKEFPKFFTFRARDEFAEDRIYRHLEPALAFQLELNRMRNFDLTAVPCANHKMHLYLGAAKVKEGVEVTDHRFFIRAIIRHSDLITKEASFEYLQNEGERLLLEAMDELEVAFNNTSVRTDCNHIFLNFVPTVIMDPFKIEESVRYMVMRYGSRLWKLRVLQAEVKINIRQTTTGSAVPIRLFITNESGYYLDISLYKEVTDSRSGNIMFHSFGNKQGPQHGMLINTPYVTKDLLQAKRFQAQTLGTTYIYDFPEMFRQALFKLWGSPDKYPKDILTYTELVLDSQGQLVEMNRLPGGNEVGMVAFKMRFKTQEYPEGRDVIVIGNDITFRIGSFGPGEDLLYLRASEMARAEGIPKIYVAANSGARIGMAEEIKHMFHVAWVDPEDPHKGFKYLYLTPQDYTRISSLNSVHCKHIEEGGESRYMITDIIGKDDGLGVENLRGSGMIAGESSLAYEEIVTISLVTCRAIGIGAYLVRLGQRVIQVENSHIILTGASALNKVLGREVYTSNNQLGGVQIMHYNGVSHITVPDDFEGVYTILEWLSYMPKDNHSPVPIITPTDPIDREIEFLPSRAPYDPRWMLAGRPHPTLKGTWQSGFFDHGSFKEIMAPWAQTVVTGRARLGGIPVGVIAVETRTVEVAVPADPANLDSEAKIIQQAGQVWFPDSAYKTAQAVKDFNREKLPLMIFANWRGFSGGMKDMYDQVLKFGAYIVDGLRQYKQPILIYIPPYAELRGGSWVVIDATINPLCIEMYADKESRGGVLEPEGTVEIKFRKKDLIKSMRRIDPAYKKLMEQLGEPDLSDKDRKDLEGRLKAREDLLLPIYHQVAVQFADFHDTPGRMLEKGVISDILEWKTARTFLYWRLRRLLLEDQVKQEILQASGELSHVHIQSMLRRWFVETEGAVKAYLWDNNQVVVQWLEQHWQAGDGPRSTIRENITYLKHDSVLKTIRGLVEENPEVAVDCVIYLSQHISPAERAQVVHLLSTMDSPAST

COc1ccccc1C(Cn1c(=O)n(C2(C(N)=O)CC2)c(=O)c2c(C)c(-c3ncco3)sc21)OC1CCOCC1 (stereo not drawn) [Example 46] and COc1ccccc1C(Cn1c(=O)n(C2(C(N)=O)CCC2)c(=O)c2c(C)c(-c3ncco3)sc21)OC1CCOCC1 (stereo not drawn) [Example 54] fall in the same range of IC50: 0.01 to 0.1 µM for the first, 0.01 to 0.1 µM for the second.

First: CNC(=O)C1(n2c(=O)c3c(C)c(-c4ncco4)sc3n(CC(OC3CCOCC3)c3ccccc3OC)c2=O)CC1 (stereo not drawn) [Example 47]
Second: CNC(=O)C1(n2c(=O)c3c(C)c(-c4ncco4)sc3n(CC(OC3CCOCC3)c3ccccc3OC)c2=O)CCC1 (stereo not drawn) [Example 53]
The IC50 of the first is higher: 0.01 to 0.1 µM for the first, under 0.01 µM for the second.

COc1ccccc1C(Cn1c(=O)n(C2(C(N)=O)CCC2)c(=O)c2c(C)c(Br)sc21)OC1CCOCC1 (stereo not drawn) [Example 51] and CNC(=O)C1(n2c(=O)c3c(C)c(Br)sc3n(CC(OC3CCOCC3)c3ccccc3OC)c2=O)CCC1 (stereo not drawn) [Example 52] fall in the same range of IC50: 0.01 to 0.1 µM for the first, 0.01 to 0.1 µM for the second.

same assay, conditions: ND630 versus RJ compounds; isoform not given; read-out: IC50 (μM) ND630/RJ-cmps(%)

COc1ccccc1C(Cn1c(=O)n(C2(C(N)=O)CC2)c(=O)c2c(C)c(-c3ncco3)sc21)OC1CCOCC1 (stereo not drawn) [Example 46] and COc1ccccc1C(Cn1c(=O)n(C2(C(N)=O)CCC2)c(=O)c2c(C)c(-c3ncco3)sc21)OC1CCOCC1 (stereo not drawn) [Example 54] fall in the same range of IC50: 0.005 to 0.01 µM for the first, 0.005 to 0.01 µM for the second.

First: CNC(=O)C1(n2c(=O)c3c(C)c(-c4ncco4)sc3n(CC(OC3CCOCC3)c3ccccc3OC)c2=O)CC1 (stereo not drawn) [Example 47]
Second: CNC(=O)C1(n2c(=O)c3c(C)c(-c4ncco4)sc3n(CC(OC3CCOCC3)c3ccccc3OC)c2=O)CCC1 (stereo not drawn) [Example 53]
The IC50 of the first is higher: 0.005 to 0.01 µM for the first, 0.003 to 0.005 µM for the second. The second is the more potent here.

COc1ccccc1C(Cn1c(=O)n(C2(C(N)=O)CCC2)c(=O)c2c(C)c(Br)sc21)OC1CCOCC1 (stereo not drawn) [Example 51] and CNC(=O)C1(n2c(=O)c3c(C)c(Br)sc3n(CC(OC3CCOCC3)c3ccccc3OC)c2=O)CCC1 (stereo not drawn) [Example 52] fall in the same range of IC50: 0.003 to 0.005 µM for the first, 0.003 to 0.005 µM for the second.

system: HepG2; assay: EC50 in HepG2; type: cell-based; conditions: HepG2; read-out: EC50 (μM) HepG2

Compared with COc1ccccc1C(Cn1c(=O)n(C2(C(N)=O)CC2)c(=O)c2c(C)c(-c3ncco3)sc21)OC1CCOCC1 (stereo not drawn) [Example 46], COc1ccccc1C(Cn1c(=O)n(C2(C(N)=O)CCC2)c(=O)c2c(C)c(-c3ncco3)sc21)OC1CCOCC1 (stereo not drawn) [Example 54] is lower in EC50: 0.01 to 0.1 µM for the first, under 0.01 µM for the second. The second is the more potent here.

CNC(=O)C1(n2c(=O)c3c(C)c(-c4ncco4)sc3n(CC(OC3CCOCC3)c3ccccc3OC)c2=O)CC1 (stereo not drawn) [Example 47] and CNC(=O)C1(n2c(=O)c3c(C)c(-c4ncco4)sc3n(CC(OC3CCOCC3)c3ccccc3OC)c2=O)CCC1 (stereo not drawn) [Example 53] fall in the same range of EC50: 0.01 to 0.1 µM for the first, 0.01 to 0.1 µM for the second.

COc1ccccc1C(Cn1c(=O)n(C2(C(N)=O)CCC2)c(=O)c2c(C)c(Br)sc21)OC1CCOCC1 (stereo not drawn) [Example 51] and CNC(=O)C1(n2c(=O)c3c(C)c(Br)sc3n(CC(OC3CCOCC3)c3ccccc3OC)c2=O)CCC1 (stereo not drawn) [Example 52] fall in the same range of EC50: 0.01 to 0.1 µM for the first, 0.01 to 0.1 µM for the second.

same assay, conditions: ND630 versus RJ compounds; read-out: EC50 (μM) ND630/RJ-cmps(%)

COc1ccccc1C(Cn1c(=O)n(C2(C(N)=O)CC2)c(=O)c2c(C)c(-c3ncco3)sc21)OC1CCOCC1 (stereo not drawn) [Example 46] and COc1ccccc1C(Cn1c(=O)n(C2(C(N)=O)CCC2)c(=O)c2c(C)c(-c3ncco3)sc21)OC1CCOCC1 (stereo not drawn) [Example 54] cannot be ordered by EC50: over 1 µM for the first, over 1 µM for the second.

CNC(=O)C1(n2c(=O)c3c(C)c(-c4ncco4)sc3n(CC(OC3CCOCC3)c3ccccc3OC)c2=O)CC1 (stereo not drawn) [Example 47] and CNC(=O)C1(n2c(=O)c3c(C)c(-c4ncco4)sc3n(CC(OC3CCOCC3)c3ccccc3OC)c2=O)CCC1 (stereo not drawn) [Example 53] cannot be ordered by EC50: over 1 µM for the first, over 1 µM for the second.

COc1ccccc1C(Cn1c(=O)n(C2(C(N)=O)CCC2)c(=O)c2c(C)c(Br)sc21)OC1CCOCC1 (stereo not drawn) [Example 51] and CNC(=O)C1(n2c(=O)c3c(C)c(Br)sc3n(CC(OC3CCOCC3)c3ccccc3OC)c2=O)CCC1 (stereo not drawn) [Example 52] cannot be ordered by EC50: over 1 µM for the first, over 1 µM for the second.

From US10995099B2, “Compounds and their uses as ACC inhibitors” (NANJING RUIJIE PHARMATECH CO., LTD., priority 2017, dated 2021)
